# Literature values in US10751328B2, “Therapy for chronic idiopathic urticaria, anaphylaxis and angioedema” (priority 2013, dated 2020).
# Assays:
# [1] = test system: white blood cell counts (eosinophil, basophils); conditions: ALS subjects, 150 mg twice daily up to 18 months, monthly CBCs; FIGS. 1 to 4 (prior art poster)
# wheal and flare reaction = conditions: versus histamine
# [2] = dihydrochloride monohydrate salt, crystalline
# [3] = test system: chronic idiopathic urticaria symptoms; conditions: patients with chronic idiopathic urticaria symptomatic despite approved doses of H1-antihistamines; 139 patients
molecule,measurement,setting,value
"CCCN[C@@H]1CCc2nc(N)sc2C1 [Dexpramipexole, (6R)-4,5,6,7-tetrahydro-N6-propyl-2,6 benzothiazole diamine]",effect on white blood cell counts,[1],"reduce white blood cell counts, especially eosinophil and basophils"
"CCCCC/C=C\C\C=C/C=C/C=C/[C@@H](SC[C@H](NC(=O)CC[C@H](N)C(=O)O)C(=O)NCC(=O)O)[C@@H](O)CCCC(=O)O [LTC4, leukotriene C4]",potency relative to histamine in causing wheal and flare reaction,wheal and flare reaction,"about 1,000 times"
"CCCN[C@H]1CCc2nc(N)sc2C1 [pramipexole, (6S)-2-amino-4,5,6,7-tetrahydro-6-(propylamino)benzothiazole]",solubility in water,[2],extremely well soluble in water
omalizumab: agent effective in chronic idiopathic urticaria through its reduction of FcεRI function in basophils and mast cells,effect on symptoms,[3],beneficial effects on symptoms
